The supplement of paper PMC12076712
± gives the standard deviation of the averaged measurements.

Experiments:
Assay in all cases: pIC50, kinobeads binding competition
Conditions in all cases: cell material: Jurkat lysate
TESK1 = TESK1 (UniProt Q15569)
BLK = BLK (UniProt P51451)
MARK4 = molecular target: T1, MARK4 (UniProt Q96L34)
T1 sequence (whole entry): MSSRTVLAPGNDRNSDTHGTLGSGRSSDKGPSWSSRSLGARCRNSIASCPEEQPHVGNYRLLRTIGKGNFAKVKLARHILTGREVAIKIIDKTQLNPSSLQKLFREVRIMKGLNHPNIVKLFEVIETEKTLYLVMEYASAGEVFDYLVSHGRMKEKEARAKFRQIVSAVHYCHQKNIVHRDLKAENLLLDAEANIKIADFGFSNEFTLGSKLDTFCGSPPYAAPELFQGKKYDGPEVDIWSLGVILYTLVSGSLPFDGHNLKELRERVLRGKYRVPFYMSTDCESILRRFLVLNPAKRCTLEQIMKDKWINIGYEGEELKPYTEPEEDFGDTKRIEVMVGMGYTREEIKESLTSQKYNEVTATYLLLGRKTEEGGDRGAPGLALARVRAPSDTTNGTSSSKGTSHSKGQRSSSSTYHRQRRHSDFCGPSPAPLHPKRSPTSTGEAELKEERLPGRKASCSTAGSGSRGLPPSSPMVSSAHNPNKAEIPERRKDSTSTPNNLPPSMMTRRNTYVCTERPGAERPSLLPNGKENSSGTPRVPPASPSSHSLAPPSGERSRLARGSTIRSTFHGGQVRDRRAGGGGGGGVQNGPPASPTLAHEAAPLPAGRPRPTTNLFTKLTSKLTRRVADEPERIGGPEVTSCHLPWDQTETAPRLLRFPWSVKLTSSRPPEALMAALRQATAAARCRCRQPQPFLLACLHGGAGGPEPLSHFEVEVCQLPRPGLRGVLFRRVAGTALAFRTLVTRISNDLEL

BRAF = BRAF (UniProt P15056)
TXK = molecular target: T2, TXK (UniProt P42681)
T2 sequence (whole entry): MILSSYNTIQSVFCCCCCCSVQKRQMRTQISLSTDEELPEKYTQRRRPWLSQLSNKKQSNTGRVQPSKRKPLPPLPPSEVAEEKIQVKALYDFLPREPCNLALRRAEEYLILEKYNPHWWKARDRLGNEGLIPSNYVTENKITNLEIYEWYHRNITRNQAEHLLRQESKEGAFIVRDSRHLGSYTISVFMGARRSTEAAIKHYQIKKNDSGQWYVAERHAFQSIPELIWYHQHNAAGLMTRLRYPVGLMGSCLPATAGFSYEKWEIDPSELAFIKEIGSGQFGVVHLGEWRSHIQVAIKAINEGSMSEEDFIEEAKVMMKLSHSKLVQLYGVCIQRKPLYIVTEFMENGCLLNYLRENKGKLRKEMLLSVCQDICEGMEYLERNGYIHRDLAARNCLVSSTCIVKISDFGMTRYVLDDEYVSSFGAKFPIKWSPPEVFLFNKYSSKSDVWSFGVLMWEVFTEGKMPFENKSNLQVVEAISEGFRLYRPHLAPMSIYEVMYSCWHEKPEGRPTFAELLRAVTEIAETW

ACVR1 = molecular target: T3, ACVR1 (UniProt Q04771)
T3 sequence (whole entry): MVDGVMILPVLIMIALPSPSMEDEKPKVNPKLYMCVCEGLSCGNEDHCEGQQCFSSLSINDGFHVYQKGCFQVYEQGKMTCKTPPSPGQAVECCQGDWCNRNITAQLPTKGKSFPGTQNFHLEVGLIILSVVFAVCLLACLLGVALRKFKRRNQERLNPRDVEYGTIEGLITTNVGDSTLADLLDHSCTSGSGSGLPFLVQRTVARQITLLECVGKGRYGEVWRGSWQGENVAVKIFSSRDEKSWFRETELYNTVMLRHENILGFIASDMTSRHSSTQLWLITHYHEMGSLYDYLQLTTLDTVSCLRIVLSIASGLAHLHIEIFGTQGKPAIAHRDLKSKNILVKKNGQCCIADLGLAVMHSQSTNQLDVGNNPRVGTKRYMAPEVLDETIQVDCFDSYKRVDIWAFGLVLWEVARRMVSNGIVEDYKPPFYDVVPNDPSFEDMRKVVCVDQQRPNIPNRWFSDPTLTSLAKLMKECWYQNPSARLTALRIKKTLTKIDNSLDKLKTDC

UniProt O96017 = molecular target: UniProt O96017
STK39 = STK39 (UniProt Q9UEW8)
UniProt Q15418 = molecular target: UniProt Q15418
Sequence of UniProt Q15418 (Q15418 whole entry): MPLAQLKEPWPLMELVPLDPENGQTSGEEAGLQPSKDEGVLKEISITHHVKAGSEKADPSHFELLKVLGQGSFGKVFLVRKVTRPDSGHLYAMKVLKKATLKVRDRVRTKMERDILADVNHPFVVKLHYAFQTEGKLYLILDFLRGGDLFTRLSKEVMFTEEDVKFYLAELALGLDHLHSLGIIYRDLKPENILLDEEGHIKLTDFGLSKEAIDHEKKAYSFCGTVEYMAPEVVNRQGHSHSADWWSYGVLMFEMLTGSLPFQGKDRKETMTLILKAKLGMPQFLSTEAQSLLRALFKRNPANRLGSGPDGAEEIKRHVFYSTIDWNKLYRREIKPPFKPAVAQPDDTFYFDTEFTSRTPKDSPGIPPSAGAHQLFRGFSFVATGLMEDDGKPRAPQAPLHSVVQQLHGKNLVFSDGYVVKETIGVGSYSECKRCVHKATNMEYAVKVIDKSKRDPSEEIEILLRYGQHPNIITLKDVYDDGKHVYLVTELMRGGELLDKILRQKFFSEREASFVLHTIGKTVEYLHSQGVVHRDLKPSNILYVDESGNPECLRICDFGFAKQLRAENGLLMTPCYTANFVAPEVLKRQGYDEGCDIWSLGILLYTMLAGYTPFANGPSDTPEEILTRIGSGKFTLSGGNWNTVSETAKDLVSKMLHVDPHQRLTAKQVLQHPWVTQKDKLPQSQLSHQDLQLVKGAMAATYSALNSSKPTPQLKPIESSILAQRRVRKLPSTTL

UniProt Q8N4C8 = molecular target: UniProt Q8N4C8
Sequence of UniProt Q8N4C8 (Q8N4C8 whole entry, looked up): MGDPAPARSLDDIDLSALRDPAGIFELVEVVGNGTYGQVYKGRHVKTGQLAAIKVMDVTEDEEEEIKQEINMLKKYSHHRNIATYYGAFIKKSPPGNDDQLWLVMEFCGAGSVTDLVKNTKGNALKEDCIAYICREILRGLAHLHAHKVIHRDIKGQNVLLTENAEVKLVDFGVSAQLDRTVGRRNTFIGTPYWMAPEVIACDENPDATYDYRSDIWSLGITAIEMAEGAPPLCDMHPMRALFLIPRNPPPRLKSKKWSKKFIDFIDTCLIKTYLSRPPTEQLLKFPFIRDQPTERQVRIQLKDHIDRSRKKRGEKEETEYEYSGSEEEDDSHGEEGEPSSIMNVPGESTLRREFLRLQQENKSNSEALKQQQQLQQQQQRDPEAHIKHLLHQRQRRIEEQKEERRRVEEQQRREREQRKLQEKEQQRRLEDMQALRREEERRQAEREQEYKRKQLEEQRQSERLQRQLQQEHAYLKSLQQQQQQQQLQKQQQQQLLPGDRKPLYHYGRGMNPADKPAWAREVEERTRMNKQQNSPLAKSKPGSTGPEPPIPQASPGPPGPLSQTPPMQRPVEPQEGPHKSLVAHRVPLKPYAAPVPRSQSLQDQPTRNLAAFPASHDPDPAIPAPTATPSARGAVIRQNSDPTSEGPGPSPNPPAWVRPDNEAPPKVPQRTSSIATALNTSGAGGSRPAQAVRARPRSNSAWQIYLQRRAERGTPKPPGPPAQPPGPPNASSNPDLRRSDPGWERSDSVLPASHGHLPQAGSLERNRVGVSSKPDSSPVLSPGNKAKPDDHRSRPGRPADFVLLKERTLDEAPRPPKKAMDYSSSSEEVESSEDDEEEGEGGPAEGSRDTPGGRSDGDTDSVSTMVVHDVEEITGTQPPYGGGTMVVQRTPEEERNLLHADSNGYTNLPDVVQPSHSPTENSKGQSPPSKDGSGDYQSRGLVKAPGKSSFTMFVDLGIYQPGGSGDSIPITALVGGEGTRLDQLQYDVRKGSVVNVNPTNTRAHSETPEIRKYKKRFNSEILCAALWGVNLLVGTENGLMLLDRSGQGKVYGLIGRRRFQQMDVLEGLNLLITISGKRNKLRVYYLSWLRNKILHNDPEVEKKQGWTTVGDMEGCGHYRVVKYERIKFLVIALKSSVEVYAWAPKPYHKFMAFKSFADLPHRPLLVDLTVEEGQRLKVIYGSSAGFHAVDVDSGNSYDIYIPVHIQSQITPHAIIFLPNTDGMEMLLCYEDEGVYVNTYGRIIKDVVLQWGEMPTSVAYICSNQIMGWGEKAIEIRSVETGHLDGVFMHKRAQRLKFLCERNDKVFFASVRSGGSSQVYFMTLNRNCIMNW

UniProt Q9Y2I7 = molecular target: UniProt Q9Y2I7
UniProt Q8NEB9 = molecular target: UniProt Q8NEB9
Sequence of UniProt Q8NEB9 (Q8NEB9 whole entry): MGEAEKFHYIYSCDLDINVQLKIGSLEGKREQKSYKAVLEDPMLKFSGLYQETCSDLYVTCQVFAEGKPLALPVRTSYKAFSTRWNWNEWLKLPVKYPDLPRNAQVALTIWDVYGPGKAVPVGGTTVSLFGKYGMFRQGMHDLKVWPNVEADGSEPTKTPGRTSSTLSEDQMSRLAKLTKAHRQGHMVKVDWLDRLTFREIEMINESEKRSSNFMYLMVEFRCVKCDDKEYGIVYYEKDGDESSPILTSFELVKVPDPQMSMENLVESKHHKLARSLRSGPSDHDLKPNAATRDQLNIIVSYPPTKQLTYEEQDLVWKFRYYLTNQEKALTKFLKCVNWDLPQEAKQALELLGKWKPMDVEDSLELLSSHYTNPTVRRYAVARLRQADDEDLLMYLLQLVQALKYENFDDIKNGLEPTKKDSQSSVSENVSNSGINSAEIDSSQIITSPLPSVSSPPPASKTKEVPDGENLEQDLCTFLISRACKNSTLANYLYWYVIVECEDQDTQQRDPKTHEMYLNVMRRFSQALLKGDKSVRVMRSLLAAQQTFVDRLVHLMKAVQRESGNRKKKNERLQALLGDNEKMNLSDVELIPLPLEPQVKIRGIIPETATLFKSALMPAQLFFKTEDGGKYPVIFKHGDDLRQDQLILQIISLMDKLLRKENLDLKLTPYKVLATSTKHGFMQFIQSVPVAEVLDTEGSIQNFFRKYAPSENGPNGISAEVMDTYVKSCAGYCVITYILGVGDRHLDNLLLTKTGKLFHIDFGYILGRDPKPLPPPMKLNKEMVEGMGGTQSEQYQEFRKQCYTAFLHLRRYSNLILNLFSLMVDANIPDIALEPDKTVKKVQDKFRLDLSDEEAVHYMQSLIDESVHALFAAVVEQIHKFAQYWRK

JAK1 = JAK1 (UniProt P23458)
CLK1 = CLK1 (UniProt P49759)
UniProt P80192 = molecular target: UniProt P80192
Sequence of UniProt P80192 (P80192 whole entry, looked up): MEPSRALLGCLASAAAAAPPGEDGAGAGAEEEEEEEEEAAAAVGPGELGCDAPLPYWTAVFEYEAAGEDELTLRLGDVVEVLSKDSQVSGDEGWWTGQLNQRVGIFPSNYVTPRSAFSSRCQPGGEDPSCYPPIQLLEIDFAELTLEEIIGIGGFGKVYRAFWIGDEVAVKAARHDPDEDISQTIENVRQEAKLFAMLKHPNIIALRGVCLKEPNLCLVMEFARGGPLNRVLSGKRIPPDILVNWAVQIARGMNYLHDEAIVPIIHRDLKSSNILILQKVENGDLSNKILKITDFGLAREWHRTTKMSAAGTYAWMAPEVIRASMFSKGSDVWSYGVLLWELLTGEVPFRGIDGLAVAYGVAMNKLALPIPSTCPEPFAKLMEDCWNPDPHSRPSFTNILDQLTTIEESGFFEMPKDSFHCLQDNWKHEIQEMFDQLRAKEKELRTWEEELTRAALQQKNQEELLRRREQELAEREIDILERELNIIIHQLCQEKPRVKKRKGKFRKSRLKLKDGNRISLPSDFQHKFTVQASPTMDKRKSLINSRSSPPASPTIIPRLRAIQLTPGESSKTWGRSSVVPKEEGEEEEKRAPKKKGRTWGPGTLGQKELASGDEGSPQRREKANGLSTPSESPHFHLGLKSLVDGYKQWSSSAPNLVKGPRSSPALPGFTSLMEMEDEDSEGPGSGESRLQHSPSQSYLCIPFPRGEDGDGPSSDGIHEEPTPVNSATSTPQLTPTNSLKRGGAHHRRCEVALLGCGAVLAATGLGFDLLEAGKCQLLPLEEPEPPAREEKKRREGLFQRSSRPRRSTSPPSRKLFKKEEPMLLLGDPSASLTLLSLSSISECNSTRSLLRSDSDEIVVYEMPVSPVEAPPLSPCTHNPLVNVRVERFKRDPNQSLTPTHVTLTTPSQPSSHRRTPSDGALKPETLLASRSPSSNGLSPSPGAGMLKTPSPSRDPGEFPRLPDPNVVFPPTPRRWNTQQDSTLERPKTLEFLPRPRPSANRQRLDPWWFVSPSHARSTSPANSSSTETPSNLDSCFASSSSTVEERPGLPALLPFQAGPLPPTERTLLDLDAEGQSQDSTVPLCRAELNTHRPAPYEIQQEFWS

PLK1 = PLK1 (UniProt P53350)
Sequence of PLK1 (P53350 whole entry): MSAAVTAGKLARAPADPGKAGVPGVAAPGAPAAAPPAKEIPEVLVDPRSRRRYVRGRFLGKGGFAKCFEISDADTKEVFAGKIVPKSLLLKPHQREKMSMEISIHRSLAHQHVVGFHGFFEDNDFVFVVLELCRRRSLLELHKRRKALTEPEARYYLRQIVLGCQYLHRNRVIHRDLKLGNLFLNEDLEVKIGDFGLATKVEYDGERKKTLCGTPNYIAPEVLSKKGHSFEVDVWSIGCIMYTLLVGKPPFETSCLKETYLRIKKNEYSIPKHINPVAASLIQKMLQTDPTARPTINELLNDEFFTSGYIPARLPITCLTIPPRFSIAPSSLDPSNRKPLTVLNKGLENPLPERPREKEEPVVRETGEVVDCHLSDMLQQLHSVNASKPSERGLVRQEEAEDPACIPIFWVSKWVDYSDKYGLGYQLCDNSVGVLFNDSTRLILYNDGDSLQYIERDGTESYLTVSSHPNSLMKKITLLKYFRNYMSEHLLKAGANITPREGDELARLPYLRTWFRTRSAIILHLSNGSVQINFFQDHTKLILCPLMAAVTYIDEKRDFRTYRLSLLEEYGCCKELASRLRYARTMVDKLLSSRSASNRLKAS

pIC50 (TESK1): < 4.52
pIC50 (BLK): < 4.52
pIC50 (MARK4): < 4.52
pIC50 (BRAF): < 4.52
pIC50 (TXK): < 4.52
pIC50 (ACVR1): < 4.52
pIC50 (UniProt O96017): < 4.52
pIC50 (STK39): 5.015 ± 0.021
pIC50 (UniProt Q15418): < 4.52
pIC50 (UniProt Q8N4C8): < 4.52
pIC50 (UniProt Q9Y2I7): < 4.52
pIC50 (UniProt Q8NEB9): < 4.52
pIC50 (JAK1): < 4.52
pIC50 (CLK1): 5.13
pIC50 (UniProt P80192): < 4.52
pIC50 (PLK1): < 4.52
Compound: CCc1cnn2c(NCc3ccc[n+]([O-])c3)cc(N3CCCC[C@H]3CCO)nc12 [dinaciclib]
